# From patent US20260355323A1, “CEREBLON-RECRUITING BCL-XL/BCL-2 DUAL DEGRADERS” (University of Florida Research Foundation, Incorporated, priority 2022, published 2026)
# Key:
# [1] = tested on: MOLT-4 acute lymphoblastic leukemia cells; test: Cell viability, tetrazolium-based MTS assay, MOLT-4; settings: Homo sapiens, MOLT-4, 48 h; read-out: Anti-Cancer Activity EC50 (48 hr), MOLT-4
# Procedure: (§1) Acute lymphoblastic leukemia cells (MOLT-4 and RS4;11) were incubated with increasing concentrations of Bcl-xL/Bcl-2 degraders for 48 h. Cell viability was measured by tetrazolium-based MTS assay.
# [2] = tested on: RS4;11 acute lymphoblastic leukemia cells; test: Cell viability, tetrazolium-based MTS assay, RS4;11; settings: Homo sapiens, RS4;11, 48 h, read-out: Anti-Cancer Activity EC50 (48 hr), RS4
# Procedure: as §1
# [3] = tested on: WI-38 irradiation-induced senescent cells (IR-SC); test: Senolytic activity, cell viability (PrestoBlue HS), WI-38 IR-SC; format: cell-based; settings: Homo sapiens, 72 h
# Procedure: (§2) To induce senescence in WI-38 and HUVEC, cells were subjected to x-ray irradiation at 20 Gray using X-RAD 320 biological irradiator. Following between 10 to 15 days after irradiation, senescence was induced in cells, and irradiation-induced senescent cells (IR-SC) were then used for cell viability and Western blotting tests.
# (§3) WI-38 and HUVEC cells were incubated with increasing concentrations of degraders for 72 h. Cell viability was measured using PrestoBlue HS cell viability reagent.
# WI-38 NC = test: Senolytic activity, cell viability (PrestoBlue HS), WI-38 NC; format: cell-based; settings: Homo sapiens, 72 h
# Procedure: as §3
# Bcl-xL [4] = biological target: T1, Bcl-xL (Homo sapiens, UniProt Q07817); test: Bcl-xL protein degradation in Jurkat cells (immunoblot); format: cell-based; settings: 16 h
# T1 construct: immunoblot after 16 h degrader treatment
# T1 sequence (Q07817 whole entry): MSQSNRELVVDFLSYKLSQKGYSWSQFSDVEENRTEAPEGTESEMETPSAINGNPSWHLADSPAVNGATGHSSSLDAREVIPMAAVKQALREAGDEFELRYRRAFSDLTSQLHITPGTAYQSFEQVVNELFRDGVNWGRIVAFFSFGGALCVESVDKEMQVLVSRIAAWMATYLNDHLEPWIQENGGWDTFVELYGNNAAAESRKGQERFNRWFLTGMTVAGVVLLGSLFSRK
# T1 sequence (Q96SW2 whole entry partner): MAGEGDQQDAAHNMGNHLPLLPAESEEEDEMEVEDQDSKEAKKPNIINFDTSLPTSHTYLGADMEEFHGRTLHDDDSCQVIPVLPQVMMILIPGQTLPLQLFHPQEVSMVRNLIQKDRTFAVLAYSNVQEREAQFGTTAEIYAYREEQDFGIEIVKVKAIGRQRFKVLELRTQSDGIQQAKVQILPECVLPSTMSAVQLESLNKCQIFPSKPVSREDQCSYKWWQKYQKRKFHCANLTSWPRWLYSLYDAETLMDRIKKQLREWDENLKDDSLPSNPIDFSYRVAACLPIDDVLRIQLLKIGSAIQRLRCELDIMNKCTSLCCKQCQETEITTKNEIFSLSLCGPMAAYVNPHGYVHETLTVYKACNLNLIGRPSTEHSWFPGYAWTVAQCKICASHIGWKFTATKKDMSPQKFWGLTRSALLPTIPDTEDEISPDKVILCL
# Procedure: (§4) Jurkat and Hela cells were incubated with increasing concentrations of test compounds for 16 h. The cells were harvested and lysed in RIPA lysis buffer supplemented with protease and phosphatase inhibitor cocktails. An equal amount of protein (20 μg/lane) was resolved on a pre-cast 4-20% SDS-PAGE gel. Proteins were subsequently transferred to NOVEX PVDF membranes by electrophoresis. The membranes were blocked in blocking buffer (5% non-fat dry milk in TBS-T), and incubated with primary antibodies (at optimized concentrations) overnight at 4° C. After three washings in TBS-T, the membranes were incubated with an appropriate FIRP-conjugated secondary antibody for 1 h at room temperature. After extensive washing for three times, the proteins of interest were detected with ECL western blotting detection reagents and recorded with autoradiography (Pierce Biotech, Rockford, IL, USA). The primary antibodies for Bcl-xL (Cat #2762), Bcl-2 (Cat #2872), Bcl-w (Cat #2724) and β-actin (Cat #4970) were purchased from Cell Signaling Technology. The relative band intensity was measured using ImageJ software and normalized to β-actin.
# Bcl-xL [5] = biological target: T1, Bcl-xL; test: Bcl-xL protein degradation in Hela cells (immunoblot); format: cell-based; settings: 16 h
# Procedure: as §4
# [6] = tested on: HUVEC irradiation-induced senescent cells (IR-SC); test: Senolytic activity, cell viability (PrestoBlue HS), HUVEC IR-SC; format: cell-based; settings: Homo sapiens, 72 h
# Procedure: as §2, §3
# HUVEC NC = test: Senolytic activity, cell viability (PrestoBlue HS), HUVEC NC; format: cell-based
# Procedure: as §3
# platelets = settings: animals and/or humans; cited from earlier work
Compound,EC50 [1],EC50 [2],EC50 [3],EC50 (WI-38 NC),degradation of Bcl-xL (Bcl-xL [4]),degradation of Bcl-xL (Bcl-xL [5]),EC50 [6],"Senolytic Activity EC50 (72 hr), HUVEC NC (HUVEC NC)",dose-limiting thrombocytopenia (platelets)
"C[C@@]1(CN2CCN(C(=O)CN3CCN(CC#Cc4ccc5c(c4)CN(C4CCC(=O)NC4=O)C5=O)CC3)CC2)CCC(c2ccc(Cl)cc2)=C(CN2CCN(c3ccc(C(=O)NS(=O)(=O)c4ccc(N[C@H](CCN5CCCOCC5)CSc5ccccc5)c(S(=O)(=O)C(F)(F)F)c4)cc3)CC2)C1 (stereo partly drawn) [Compound 4, N-((4-(((R)-4-(1,4-oxazepan-4-yl)-1-(phenylthio)butan-2-yl)amino)-3-((trifluoromethyl)sulfonyl)phenyl)sulfonyl)-4-(4-(((4R)-4′-chloro-4-((4-(2-(4-(3-(2-(2,6-dioxopiperidin-3-yl)-1-oxoisoindolin-5-yl)prop-2-yn-1-yl)piperazin-1-yl)acetyl)piperazin-1-yl)methyl)-4-methyl-3,4,5,6-tetrahydro-[1,1′-biphenyl]-2-yl)methyl)piperazin-1-yl)benzamide]",< 1 nM,< 1 nM,1 to 10 nM,> 10000 nM,degrade Bcl-xL in a dose-dependent manner,degrade Bcl-xL in a dose-dependent manner,–,–,–
C[C@@]1(CN2CCC(CN3CCN(c4ccc5c(c4)C(=O)N(C4CCC(=O)NC4=O)C5)CC3)CC2)CCC(c2ccc(Cl)cc2)=C(CN2CCN(c3ccc(C(=O)NS(=O)(=O)c4ccc(N[C@H](CCN5CCCOCC5)CSc5ccccc5)c(S(=O)(=O)C(F)(F)F)c4)cc3)CC2)C1 (some centres unmarked) [Compound 134],< 1 nM,< 1 nM,1 to 10 nM,–,–,–,< 1 nM,++ (100-10 μM),–
"C[C@@]1(CN2CCC(CN3CCN(c4ccc(NC5CCC(=O)NC5=O)cc4F)CC3)CC2)CCC(c2ccc(Cl)cc2)=C(CN2CCN(c3ccc(C(=O)NS(=O)(=O)c4ccc(N[C@H](CCN5CCCOCC5)CSc5ccccc5)c(S(=O)(=O)C(F)(F)F)c4)cc3)CC2)C1 (stereo partly drawn) [Compound 141, N-((4-(((R)-4-(1,4-oxazepan-4-yl)-1-(phenylthio)butan-2-yl)amino)-3-((trifluoromethyl)sulfonyl)phenyl)sulfonyl)-4-(4-(((4R)-4′-chloro-4-((4-((4-(4-((2,6-dioxopiperidin-3-yl)amino)-2-fluorophenyl)piperazin-1-yl)methyl)piperidin-1-yl)methyl)-4-methyl-3,4,5,6-tetrahydro-[1,1′-biphenyl]-2-yl)methyl)piperazin-1-yl)benzamide]",1 to 10 nM,1 to 10 nM,1 to 10 nM,> 10000 nM,–,–,< 1 nM,–,–
CN(C)CC[C@H](CSc1ccccc1)Nc1ccc(S(=O)(=O)NC(=O)c2ccc(N3CCN(Cc4ccccc4-c4ccc(Cl)cc4)CC3)cc2)cc1[N+](=O)[O-] [ABT-737],–,–,–,–,–,–,–,–,dose-limiting thrombocytopenia has been observed
CN(C)CC#Cc1ccc(OCCCc2sc(N3CCc4cccc(C(=O)Nc5nc6ccccc6s5)c4C3)nc2C(=O)O)c(F)c1 [Compound A-1155463],–,–,–,–,–,–,–,–,dose-limiting thrombocytopenia has been observed
"C[C@@]1(CN2CCN(C(=O)CN3CCN(c4ccc5c(c4)CN(C4CCC(=O)NC4=O)C5=O)CC3)CC2)CCC(c2ccc(Cl)cc2)=C(CN2CCN(c3ccc(C(=O)NS(=O)(=O)c4ccc(N[C@H](CCN5CCCOCC5)CSc5ccccc5)c(S(=O)(=O)C(F)(F)F)c4)cc3)CC2)C1 (stereo partly drawn) [Compound 1, N-((4-(((R)-4-(1,4-oxazepan-4-yl)-1-(phenylthio)butan-2-yl)amino)-3-((trifluoromethyl)sulfonyl)phenyl)sulfonyl)-4-(4-(((4R)-4′-chloro-4-((4-(2-(4-(2-(2,6-dioxopiperidin-3-yl)-1-oxoisoindolin-5-yl)piperazin-1-yl)acetyl)piperazin-1-yl)methyl)-4-methyl-3,4,5,6-tetrahydro-[1,1′-biphenyl]-2-yl)methyl)piperazin-1-yl)benzamide]",< 1 nM,< 1 nM,1 to 10 nM,> 10000 nM,degrade Bcl-xL in a dose-dependent manner,degrade Bcl-xL in a dose-dependent manner,–,–,–
Cc1c(S(C)(=O)=O)c(-c2cc(F)cc(N3CCN(c4ccc(NS(=O)(=O)c5ccc(N[C@H](CCN6CCC(O)CC6)CSc6ccccc6)c(S(=O)(=O)C(F)(F)F)c5)cc4)CC3)c2)c(-c2ccc(Cl)cc2)n1C(C)C [BM-1197],–,–,–,–,–,–,–,–,dose-limiting thrombocytopenia has been observed
"C[C@@]1(CN2CCC(CN3CCC(CN4CCN(c5ccc6c(c5)CN(C5CCC(=O)NC5=O)C6=O)CC4)CC3)CC2)CCC(c2ccc(Cl)cc2)=C(CN2CCN(c3ccc(C(=O)NS(=O)(=O)c4ccc(N[C@H](CCN5CCCOCC5)CSc5ccccc5)c(S(=O)(=O)C(F)(F)F)c4)cc3)CC2)C1 (stereo partly drawn) [Compound 12, N-((4-(((R)-4-(1,4-oxazepan-4-yl)-1-(phenylthio)butan-2-yl)amino)-3-((trifluoromethyl)sulfonyl)phenyl)sulfonyl)-4-(4-(((4R)-4′-chloro-4-((4-((4-((4-(2-(2,6-dioxopiperidin-3-yl)-1-oxoisoindolin-5-yl)piperazin-1-yl)methyl)piperidin-1-yl)methyl)piperidin-1-yl)methyl)-4-methyl-3,4,5,6-tetrahydro-[1,1′-biphenyl]-2-yl)methyl)piperazin-1-yl)benzamide]",< 1 nM,< 1 nM,10 to 100 nM,> 10000 nM,degrade Bcl-xL in a dose-dependent manner,degrade Bcl-xL in a dose-dependent manner,–,–,–
"C[C@@]1(CN2CCCN(c3ccc4c(c3)CN(C3CCC(=O)NC3=O)C4=O)CC2)CCC(c2ccc(Cl)cc2)=C(CN2CCN(c3ccc(C(=O)NS(=O)(=O)c4ccc(N[C@H](CCN5CCCOCC5)CSc5ccccc5)c(S(=O)(=O)C(F)(F)F)c4)cc3)CC2)C1 (stereo partly drawn) [Compound 135, N-((4-(((R)-4-(1,4-oxazepan-4-yl)-1-(phenylthio)butan-2-yl)amino)-3-((trifluoromethyl)sulfonyl)phenyl)sulfonyl)-4-(4-(((4R)-4′-chloro-4-((4-(2-(2,6-dioxopiperidin-3-yl)-1-oxoisoindolin-5-yl)-1,4-diazepan-1-yl)methyl)-4-methyl-3,4,5,6-tetrahydro-[1,1′-biphenyl]-2-yl)methyl)piperazin-1-yl)benzamide]",< 1 nM,< 1 nM,10 to 100 nM,–,–,–,< 1 nM,++ (100-10 μM),–
"C[C@@]1(CN2CCC(CN3CCN(c4ccc5c(c4)CN(C4CCC(=O)NC4=O)C5=O)CC3)CC2)CCC(c2ccc(Cl)cc2)=C(CN2CCN(c3ccc(C(=O)NS(=O)(=O)c4ccc(N[C@H](CCN5CCCOCC5)CSc5ccccc5)c(S(=O)(=O)C(F)(F)F)c4)cc3)CC2)C1 (stereo partly drawn) [Compound 11, N-((4-(((R)-4-(1,4-oxazepan-4-yl)-1-(phenylthio)butan-2-yl)amino)-3-((trifluoromethyl)sulfonyl)phenyl)sulfonyl)-4-(4-(((4R)-4′-chloro-4-((4-((4-(2-(2,6-dioxopiperidin-3-yl)-1-oxoisoindolin-5-yl)piperazin-1-yl)methyl)piperidin-1-yl)methyl)-4-methyl-3,4,5,6-tetrahydro-[1,1′-biphenyl]-2-yl)methyl)piperazin-1-yl)benzamide]",< 1 nM,< 1 nM,1 to 10 nM,> 10000 nM,degrade Bcl-xL in a dose-dependent manner,degrade Bcl-xL in a dose-dependent manner,< 1 nM,–,–
"C[C@@]1(CN2CCC(c3ccc4c(c3)CN(C3CCC(=O)NC3=O)C4=O)CC2)CCC(c2ccc(Cl)cc2)=C(CN2CCN(c3ccc(C(=O)NS(=O)(=O)c4ccc(N[C@H](CCN5CCCOCC5)CSc5ccccc5)c(S(=O)(=O)C(F)(F)F)c4)cc3)CC2)C1 (stereo partly drawn) [Compound 128, N-((4-(((R)-4-(1,4-oxazepan-4-yl)-1-(phenylthio)butan-2-yl)amino)-3-((trifluoromethyl)sulfonyl)phenyl)sulfonyl)-4-(4-(((4R)-4′-chloro-4-((4-(2-(2,6-dioxopiperidin-3-yl)-1-oxoisoindolin-5-yl)piperidin-1-yl)methyl)-4-methyl-3,4,5,6-tetrahydro-[1,1′-biphenyl]-2-yl)methyl)piperazin-1-yl)benzamide]",< 1 nM,< 1 nM,1 to 10 nM,–,degrade Bcl-xL in a dose-dependent manner,degrade Bcl-xL in a dose-dependent manner,< 1 nM,++ (100-10 μM),–
